According to the NIST ThermoML archive (doi:10.1016/j.tca.2005.08.036):
± gives the expanded uncertainty stated by the source.

Assay: mn = molality of the nth substance listed, in mol/kg
Conditions: Liquid, Capillary tube (Ostwald / Ubbelohde) method

[I-].[Li+] [lithium iodide] + O
viscosity [mPa·s]
Conditions | 100 kPa | 10000 kPa | 40000 kPa
293.15 K, m1 = 0.08 | 1.009 ± 0.0092 | 1.005 ± 0.0091 | 0.9978 ± 0.009
293.15 K, m1 = 0.16 | 1.015 ± 0.0092 | 1.012 ± 0.0092 | 1.004 ± 0.009
293.15 K, m1 = 0.2832 | 1.025 ± 0.0093 | 1.02 ± 0.0092 | 1.014 ± 0.0091
293.15 K, m1 = 0.6621 | 1.05 ± 0.0095 | 1.047 ± 0.0094 | 1.039 ± 0.0095
293.15 K, m1 = 1.605 | 1.122 ± 0.01 | 1.118 ± 0.0099 | 1.112 ± 0.0098
293.15 K, m1 = 2.16 | 1.158 ± 0.01 | 1.154 ± 0.01 | 1.147 ± 0.01
293.15 K, m1 = 3.089 | 1.227 ± 0.011 | 1.224 ± 0.011 | 1.215 ± 0.011
298.15 K, m1 = 0.08 | 0.8961 ± 0.0083 | 0.8946 ± 0.0082 | 0.892 ± 0.0081
298.15 K, m1 = 0.16 | 0.9025 ± 0.0082 | 0.9012 ± 0.0081 | 0.8979 ± 0.008
298.15 K, m1 = 0.2832 | 0.9114 ± 0.0082 | 0.9098 ± 0.0081 | 0.907 ± 0.0081
298.15 K, m1 = 0.6621 | 0.9363 ± 0.0085 | 0.9351 ± 0.0085 | 0.9225 ± 0.0083
298.15 K, m1 = 1.605 | 1.002 ± 0.0088 | 1.001 ± 0.0088 | 0.9979 ± 0.0087
298.15 K, m1 = 2.16 | 1.04 ± 0.009 | 1.038 ± 0.009 | 1.035 ± 0.0089
298.15 K, m1 = 3.089 | 1.108 ± 0.0097 | 1.101 ± 0.0096 | 1.097 ± 0.0095
304.75 K, m1 = 0.6621 | 0.8141 ± 0.0072 | 0.8149 ± 0.0072 | 0.8164 ± 0.0072
304.77 K, m1 = 0.08 | 0.7764 ± 0.0069 | 0.777 ± 0.0069 | 0.7779 ± 0.0069
307.45 K, m1 = 3.089 | 0.9235 ± 0.008 | 0.925 ± 0.008 | 0.9291 ± 0.008
308.74 K, m1 = 0.16 | 0.7215 ± 0.0066 | 0.7221 ± 0.0066 | 0.7256 ± 0.0066
310.64 K, m1 = 0.2832 | 0.7028 ± 0.0065 | 0.7047 ± 0.0065 | 0.7074 ± 0.0065
311.74 K, m1 = 1.605 | 0.7684 ± 0.007 | 0.77 ± 0.007 | 0.7748 ± 0.007
312.45 K, m1 = 2.16 | 0.7939 ± 0.0072 | 0.7957 ± 0.0072 | 0.8016 ± 0.0072
322.51 K, m1 = 0.2832 | 0.5682 ± 0.0052 | 0.5704 ± 0.0052 | 0.5768 ± 0.0053
323.45 K, m1 = 1.605 | 0.6301 ± 0.0057 | 0.6327 ± 0.0057 | 0.6406 ± 0.0057
323.74 K, m1 = 0.16 | 0.5504 ± 0.0051 | 0.5527 ± 0.0052 | 0.5599 ± 0.0052
324.02 K, m1 = 2.16 | 0.6554 ± 0.0059 | 0.6584 ± 0.0059 | 0.6666 ± 0.0059
324.23 K, m1 = 0.6621 | 0.5733 ± 0.0054 | 0.5758 ± 0.0054 | 0.5829 ± 0.0054
324.62 K, m1 = 0.08 | 0.5385 ± 0.0051 | 0.5407 ± 0.0052 | 0.5475 ± 0.0052
325.64 K, m1 = 3.089 | 0.6865 ± 0.0062 | 0.6896 ± 0.0062 | 0.6986 ± 0.0062
341.69 K, m1 = 0.08 | 0.4164 ± 0.004 | 0.4192 ± 0.0041 | 0.4252 ± 0.0041
343.64 K, m1 = 0.6621 | 0.4337 ± 0.0042 | 0.4368 ± 0.0042 | 0.4458 ± 0.0043
344.06 K, m1 = 0.16 | 0.4065 ± 0.004 | 0.4093 ± 0.004 | 0.4177 ± 0.0041
344.66 K, m1 = 1.605 | 0.4673 ± 0.0044 | 0.4708 ± 0.0045 | 0.4804 ± 0.0045
345.43 K, m1 = 2.16 | 0.4884 ± 0.0046 | 0.4912 ± 0.0046 | 0.5015 ± 0.0047
347.42 K, m1 = 0.2832 | 0.394 ± 0.0039 | 0.3976 ± 0.004 | 0.4052 ± 0.004
348.24 K, m1 = 3.089 | 0.5101 ± 0.0048 | 0.5144 ± 0.0048 | 0.5255 ± 0.0049
363.94 K, m1 = 3.089 | 0.4275 ± 0.0041 | 0.4317 ± 0.0041 | 0.4435 ± 0.0042
364.95 K, m1 = 2.16 | 0.3905 ± 0.0039 | 0.3944 ± 0.0038 | 0.4048 ± 0.0039
367.05 K, m1 = 0.2832 | 0.3119 ± 0.0033 | 0.3142 ± 0.0033 | 0.3227 ± 0.0033
368.75 K, m1 = 1.605 | 0.3544 ± 0.0036 | 0.358 ± 0.0036 | 0.3678 ± 0.0036
368.79 K, m1 = 0.16 | 0.3014 ± 0.0032 | 0.3044 ± 0.0032 | 0.3128 ± 0.0033
369.35 K, m1 = 0.08 | 0.2968 ± 0.0032 | 0.2996 ± 0.0032 | 0.3079 ± 0.0032
369.49 K, m1 = 0.6621 | 0.3189 ± 0.0034 | 0.3222 ± 0.0033 | 0.3313 ± 0.0034
396.7 K, m1 = 0.08 | – | 0.2301 ± 0.0026 | 0.2381 ± 0.0027
397.72 K, m1 = 2.16 | – | 0.2921 ± 0.0031 | 0.3023 ± 0.0032
397.82 K, m1 = 0.16 | – | 0.2304 ± 0.0026 | 0.2385 ± 0.0027
398.32 K, m1 = 0.2832 | – | 0.2331 ± 0.0027 | 0.2414 ± 0.0027
398.72 K, m1 = 3.089 | – | 0.3165 ± 0.0033 | 0.3278 ± 0.0034
398.94 K, m1 = 1.605 | – | 0.2713 ± 0.0029 | 0.2809 ± 0.003
399.03 K, m1 = 0.6621 | – | 0.2447 ± 0.0028 | 0.2534 ± 0.0028
421.45 K, m1 = 0.6621 | – | 0.206 ± 0.0025 | 0.2139 ± 0.0025
422.12 K, m1 = 0.08 | – | 0.1885 ± 0.0023 | 0.1959 ± 0.0024
422.41 K, m1 = 3.089 | – | 0.2666 ± 0.0029 | 0.277 ± 0.003
422.47 K, m1 = 1.605 | – | 0.2275 ± 0.0026 | 0.2363 ± 0.0027
424.14 K, m1 = 0.2832 | – | 0.1913 ± 0.0024 | 0.1988 ± 0.0024
424.41 K, m1 = 2.16 | – | 0.24 ± 0.0027 | 0.2494 ± 0.0028
424.49 K, m1 = 0.16 | – | 0.1874 ± 0.0023 | 0.1947 ± 0.0024
444.25 K, m1 = 2.16 | – | 0.2119 ± 0.0025 | 0.2206 ± 0.0026
447.54 K, m1 = 3.089 | – | 0.2284 ± 0.0026 | 0.2383 ± 0.0027
447.94 K, m1 = 1.605 | – | 0.1945 ± 0.0024 | 0.2029 ± 0.0024
448.75 K, m1 = 0.16 | – | 0.1602 ± 0.0021 | 0.1674 ± 0.0022
449.02 K, m1 = 0.08 | – | 0.1581 ± 0.0021 | 0.1648 ± 0.0022
449.06 K, m1 = 0.6621 | – | 0.1725 ± 0.0022 | 0.1802 ± 0.0023
449.71 K, m1 = 0.2832 | – | 0.1622 ± 0.0021 | 0.1696 ± 0.0022
472.45 K, m1 = 0.08 | – | 0.1387 ± 0.002 | 0.1452 ± 0.002
472.92 K, m1 = 0.2832 | – | 0.1429 ± 0.002 | 0.1501 ± 0.0021
473.06 K, m1 = 1.605 | – | 0.1699 ± 0.0022 | 0.1784 ± 0.0023
473.07 K, m1 = 2.16 | – | 0.1815 ± 0.0023 | 0.19 ± 0.0023
473.46 K, m1 = 0.16 | – | 0.1397 ± 0.002 | 0.1467 ± 0.002
473.71 K, m1 = 3.089 | – | 0.1992 ± 0.0024 | 0.2091 ± 0.0025
474.98 K, m1 = 0.6621 | – | 0.1497 ± 0.0021 | 0.1572 ± 0.0021
522.7 K, m1 = 0.16 | – | 0.1109 ± 0.0018 | 0.1182 ± 0.0018
523.42 K, m1 = 3.089 | – | 0.1603 ± 0.0021 | 0.1711 ± 0.0022
523.72 K, m1 = 0.08 | – | 0.1089 ± 0.0018 | 0.1163 ± 0.0018
524.07 K, m1 = 0.2832 | – | 0.1123 ± 0.0018 | 0.1199 ± 0.0018
524.86 K, m1 = 1.605 | – | 0.1344 ± 0.0019 | 0.1433 ± 0.002
525.42 K, m1 = 0.6621 | – | 0.1185 ± 0.0018 | 0.1266 ± 0.0019
525.49 K, m1 = 2.16 | – | 0.1435 ± 0.002 | 0.1531 ± 0.0021
